Data published in patent publication US20190133968A1, “Applications of benzophenones in preparation of drug” (SHANXI MEDICAL UNIVERSITY, priority 2016, published 2019).

Key:
[1] = system: Escherichia coli ATCC25922 standard strain; test: urinary and renal bacterial culture of acute pyelonephritis rats; type: in vivo, SD rats; details: gavage, 10 days; for Renal bacterial culture score: mean score, scale 1-4 of Table 10 (colony number <10, >10, >100, >1000); for Urinary bacterial A value (OD600 nm): urine culture
Method: Ninety male SD rats having a weight of 180-220 g are selected, wherein: ten rats are selected as a sham-operated group (only being processed with ligation, without injecting with Escherichia coli), and the remaining rats are injected with Escherichia coli ATCC25922 standard strain having a concentration of 10^8/ml according to the method (disclosed in the Chinese Journal of Laboratory Animal Science, 1998, 8(1): pages 31-34) for preparing the acute pyelonephritis model rats.
After three days, urine of the rats is collected for bacterial culture, and the growth situation of the bacteria is observed. If the result is positive, the model rats are successively established; the unqualified rats are excluded, and the operation is made again for complementing the rats. The successively established model rats are randomly divided into the model group, the norfloxacin group (66.7 mg/kg), the LM49 solid dispersion low-dose group (with the drug concentration of 3 mg/kg), the LM49 solid dispersion medium-dose group (with the drug concentration of 9 mg/kg), the LM49 solid dispersion high-dose group (with the drug concentration of 27 mg/kg), the A8 solid dispersion low-dose group (with the drug concentration of 3 mg/kg), the A8 solid dispersion medium-dose group (with the drug concentration of 9 mg/kg), and the A8 solid dispersion high-dose group (with the drug concentration of 27 mg/kg).
The rats of the sham-operated group and the model group are administrated with the normal saline of same volume by gavage, and the rats of the other groups are respectively administrated with the drugs of the corresponding dose, once a day for consecutive ten days.
After finishing administration, urine of the rats of all groups is collected (for observing the bacterial growth situation). The abdominal aorta blood of the rats is drawn (for measuring the blood routine, CD4/CD8, urine creatinine and serum creatinine in the serum; and for measuring contents of IL-1α, IL-1β, IL-6, IL-10 and MCP-1 in the serum with the ELISA method). Two kidneys of each rat are cut (wherein a part is homogenated for bacterial culture, and the other part is used for observing the pathomorphology change).

chronic nephritis rats = test: chronic nephritis rat model (passive Heymann nephritis); type: in vivo, SD rats; details: gavage; for IL-1α / IL-1β / IL-6 / IL-10 / Scr: serum
Method: The solid dispersions are prepared through a solvent method, comprising steps of: respectively precisely weighing LM49, PVPK30 and tween80 with a weight ratio of 1:5:1, and A8, PVPK30 and tween80 with a weight ratio of 1:4:1; dissolving with appropriate absolute ethyl alcohol, continuously stirring, and uniformly mixing; placing on the water bath at 60° C., evaporating and removing the absolute ethyl alcohol, and obtaining a viscous material; placing in the freezer at −20° C., and freezing for 2 hours; taking out from the freezer, then placing in the vacuum drying oven, and drying for 24 hours; after becoming embrittlement, smashing and sieving with a sieve of 80 meshes, and then placing in the dryer for storage.
The passive Heymann nephritis is the classic model for researching the human chronic nephrosis. Thus, the present invention researches the effects of the two disclosed compounds on preventing the chronic nephritis with the model.
Ninety male SD rats having a weight of 180-220 g are selected, wherein: ten rats are selected as a blank group, and the remaining rats are used for preparing the rat Heymann nephritis models according to the method (disclosed in Journal of Proteomics, 2012, 75(3): pages 3866-3876). The successively established model rats are randomly divided into the model group, the positive control group (dexamethasone with a concentration of 0.1 mg/kg), the LM49 solid dispersion low-dose group (with the drug concentration of 3 mg/kg), the LM49 solid dispersion medium-dose group (with the drug concentration of 9 mg/kg), the LM49 solid dispersion high-dose group (with the drug concentration of 27 mg/kg), the A8 solid dispersion low-dose group (with the drug concentration of 3 mg/kg), the A8 solid dispersion medium-dose group (with the drug concentration of 9 mg/kg), and the A8 solid dispersion high-dose group (with the drug concentration of 27 mg/kg).
The rats of the blank group and the model group are administrated with the normal saline of same volume, and the rats of the other groups are respectively administrated with the drugs of the corresponding dose, by gavage, every day from model establishment for four weeks.
The blood of the rats of all groups is drawn at the second week and the fourth week from model establishment and 24-hour urine thereof is collected, for respectively measuring the contents of the urinary albumin, serum creatinine (Scr) in the serum, BUN, IL-1α, IL-1β, IL-6 and IL-10.
The data is represented in mean±(standard deviation) (x±s) and processed with the SPSS 19.0 statistical software. The one-way analysis of variance (ANOVA) is adopted for comparison among the groups, and then the LSD-Test is adopted for pairwise comparison. The differences of P<0.05 and P<0.01 are statistically significant.

[2] = high-dose 27 mg/kg, Fourth week
[3] = high-dose 27 mg/kg, Second week
[4] = medium-dose 9 mg/kg, Fourth week
[5] = medium-dose 9 mg/kg, Second week

Compound: O=C(c1cc(OC(=O)N2CCOCC2)c(OC(=O)N2CCOCC2)cc1Cl)c1cc(Cl)ccc1OC(=O)N1CCOCC1 [A8, 4,5,2′-tris(4-morpholinemethanoyl)-2,5′-dichlorobenzophenone]
- Renal bacterial culture score ([1]; high-dose 27 mg/kg): 1.5 ± 0.33^ΔΔ
- Urinary bacterial A value (OD600 nm) ([1]; high-dose 27 mg/kg): 0.274 ± 0.113^ΔΔ
- Renal bacterial culture score ([1]; low-dose 3 mg/kg): 3.6 ± 0.57^
- Urinary bacterial A value (OD600 nm) ([1]; low-dose 3 mg/kg): 0.332 ± 0.131^
- Renal bacterial culture score ([1]; medium-dose 9 mg/kg): 2.6 ± 0.23^Δ
- Urinary bacterial A value (OD600 nm) ([1]; medium-dose 9 mg/kg): 0.304 ± 0.125^Δ
- 24-hour urinary protein quantitation (chronic nephritis rats; [2]): 8.26 ± 1.9^ΔΔ## mg/24 h
- 24-hour urinary protein quantitation (chronic nephritis rats; [3]): 14.77 ± 3.6^ΔΔ mg/24 h
- IL-1α (chronic nephritis rats; [2]): 7.33 ± 2.14^ΔΔ pg/ml
- IL-1β (chronic nephritis rats; [2]): 99.44 ± 39.74^ΔΔ# pg/ml
- IL-6 (chronic nephritis rats; [2]): 56.95 ± 20.44^ΔΔ pg/ml
- IL-10 (chronic nephritis rats; [2]): 40.21 ± 13.01 pg/mL
- Scr (chronic nephritis rats; [2]): 44.55 ± 10.7 µmol/L
- IL-1α (chronic nephritis rats; [3]): 10.69 ± 3.76 pg/mL
- IL-1β (chronic nephritis rats; [3]): 198.20 ± 90.01^Δ pg/ml
- IL-6 (chronic nephritis rats; [3]): 78.66 ± 35.92^ΔΔ pg/ml
- IL-10 (chronic nephritis rats; [3]): 60.25 ± 22.34 pg/mL
- Scr (chronic nephritis rats; [3]): 41.04 ± 10.1 µmol/L
- 24-hour urinary protein quantitation (chronic nephritis rats; low-dose 3 mg/kg, Fourth week): 30.22 ± 6.8 mg/24 h
- 24-hour urinary protein quantitation (chronic nephritis rats; low-dose 3 mg/kg, Second week): 32.98 ± 7.7 mg/24 h
- IL-1α (chronic nephritis rats; low-dose 3 mg/kg, Fourth week): 12.65 ± 3.14 pg/mL
- IL-1β (chronic nephritis rats; low-dose 3 mg/kg, Fourth week): 261.33 ± 76.55^ pg/ml
- IL-6 (chronic nephritis rats; low-dose 3 mg/kg, Fourth week): 89.33 ± 29.89^Δ pg/ml
- IL-10 (chronic nephritis rats; low-dose 3 mg/kg, Fourth week): 70.66 ± 32.28 pg/mL
- Scr (chronic nephritis rats; low-dose 3 mg/kg, Fourth week): 47.36 ± 13.1 µmol/L
- IL-1α (chronic nephritis rats; low-dose 3 mg/kg, Second week): 14.01 ± 3.99 pg/mL
- IL-1β (chronic nephritis rats; low-dose 3 mg/kg, Second week): 310.21 ± 70.01 pg/mL
- IL-6 (chronic nephritis rats; low-dose 3 mg/kg, Second week): 111.79 ± 36.28 pg/mL
- IL-10 (chronic nephritis rats; low-dose 3 mg/kg, Second week): 89.33 ± 36.77 pg/mL
- Scr (chronic nephritis rats; low-dose 3 mg/kg, Second week): 44.33 ± 11.1 µmol/L
- 24-hour urinary protein quantitation (chronic nephritis rats; [4]): 15.01 ± 4.4^ΔΔ mg/24 h
- 24-hour urinary protein quantitation (chronic nephritis rats; [5]): 20.02 ± 5.2^Δ mg/24 h
- IL-1α (chronic nephritis rats; [4]): 10.10 ± 4.01 pg/mL
- IL-1β (chronic nephritis rats; [4]): 192.56 ± 64.69^Δ pg/ml
- IL-6 (chronic nephritis rats; [4]): 73.57 ± 25.60^ΔΔ pg/ml
- IL-10 (chronic nephritis rats; [4]): 61.48 ± 24.53 pg/mL
- Scr (chronic nephritis rats; [4]): 45.99 ± 14.4 µmol/L
- IL-1α (chronic nephritis rats; [5]): 12.63 ± 4.56 pg/mL
- IL-1β (chronic nephritis rats; [5]): 277.65 ± 60.39 pg/mL
- IL-6 (chronic nephritis rats; [5]): 90.31 ± 30.41^Δ pg/ml
- IL-10 (chronic nephritis rats; [5]): 74.55 ± 32.12 pg/mL
- Scr (chronic nephritis rats; [5]): 45.66 ± 12.2 µmol/L

Compound: O=C(c1cc(Br)ccc1O)c1cc(O)c(O)cc1Br [LM49, 2,5′-dibromo-4,5,2′-trihydroxyldiphenylmethanone]
- Renal bacterial culture score ([1]; high-dose 27 mg/kg): 1.9 ± 0.57^ΔΔ
- Urinary bacterial A value (OD600 nm) ([1]; high-dose 27 mg/kg): 0.304 ± 0.109^Δ
- Renal bacterial culture score ([1]; low-dose 3 mg/kg): 3.9 ± 0.32^
- Urinary bacterial A value (OD600 nm) ([1]; low-dose 3 mg/kg): 0.353 ± 0.128^
- Renal bacterial culture score ([1]; medium-dose 9 mg/kg): 3.4 ± 0.52^Δ
- Urinary bacterial A value (OD600 nm) ([1]; medium-dose 9 mg/kg): 0.331 ± 0.100^Δ
- 24-hour urinary protein quantitation (chronic nephritis rats; [2]): 9.55 ± 2.8^ΔΔ## mg/24 h
- 24-hour urinary protein quantitation (chronic nephritis rats; [3]): 18.11 ± 3.2^Δ mg/24 h
- IL-1α (chronic nephritis rats; [2]): 8.42 ± 2.76^ΔΔ pg/ml
- IL-1β (chronic nephritis rats; [2]): 200.44 ± 59.31^Δ pg/ml
- IL-6 (chronic nephritis rats; [2]): 77.03 ± 36.53^ΔΔ pg/ml
- IL-10 (chronic nephritis rats; [2]): 31.42 ± 10.09 pg/mL
- Scr (chronic nephritis rats; [2]): 46.97 ± 11.6 µmol/L
- IL-1α (chronic nephritis rats; [3]): 11.44 ± 3.95 pg/mL
- IL-1β (chronic nephritis rats; [3]): 227.21 ± 95.41^Δ pg/ml
- IL-6 (chronic nephritis rats; [3]): 91.11 ± 40.63^ΔΔ pg/ml
- IL-10 (chronic nephritis rats; [3]): 55.75 ± 17.61 pg/mL
- Scr (chronic nephritis rats; [3]): 41.42 ± 10.6 µmol/L
- 24-hour urinary protein quantitation (chronic nephritis rats; low-dose 3 mg/kg, Fourth week): 22.18 ± 6.3 mg/24 h
- 24-hour urinary protein quantitation (chronic nephritis rats; low-dose 3 mg/kg, Second week): 34.43 ± 6.6 mg/24 h
- IL-1α (chronic nephritis rats; low-dose 3 mg/kg, Fourth week): 13.98 ± 3.77 pg/mL
- IL-1β (chronic nephritis rats; low-dose 3 mg/kg, Fourth week): 380.39 ± 80.66^ pg/ml
- IL-6 (chronic nephritis rats; low-dose 3 mg/kg, Fourth week): 130.12 ± 45.19 pg/mL
- IL-10 (chronic nephritis rats; low-dose 3 mg/kg, Fourth week): 60.01 ± 26.61 pg/mL
- Scr (chronic nephritis rats; low-dose 3 mg/kg, Fourth week): 47.78 ± 11.2 µmol/L
- IL-1α (chronic nephritis rats; low-dose 3 mg/kg, Second week): 14.53 ± 4.76 pg/mL
- IL-1β (chronic nephritis rats; low-dose 3 mg/kg, Second week): 388.25 ± 72.31 pg/mL
- IL-6 (chronic nephritis rats; low-dose 3 mg/kg, Second week): 131.23 ± 41.33 pg/mL
- IL-10 (chronic nephritis rats; low-dose 3 mg/kg, Second week): 80.09 ± 33.11 pg/mL
- Scr (chronic nephritis rats; low-dose 3 mg/kg, Second week): 49.44 ± 11.1 µmol/L
- 24-hour urinary protein quantitation (chronic nephritis rats; [4]): 17.65 ± 5.7^ΔΔ mg/24 h
- 24-hour urinary protein quantitation (chronic nephritis rats; [5]): 24.99 ± 5.0 mg/24 h
- IL-1α (chronic nephritis rats; [4]): 12.15 ± 4.76 pg/mL
- IL-1β (chronic nephritis rats; [4]): 297.55 ± 94.66^Δ pg/ml
- IL-6 (chronic nephritis rats; [4]): 90.66 ± 40.03^Δ pg/ml
- IL-10 (chronic nephritis rats; [4]): 51.51 ± 18.09 pg/mL
- Scr (chronic nephritis rats; [4]): 46.57 ± 10.9 µmol/L
- IL-1α (chronic nephritis rats; [5]): 13.62 ± 4.87 pg/mL
- IL-1β (chronic nephritis rats; [5]): 351.11 ± 100.32 pg/mL
- IL-6 (chronic nephritis rats; [5]): 100.15 ± 32.51 pg/mL
- IL-10 (chronic nephritis rats; [5]): 61.31 ± 23.89 pg/mL
- Scr (chronic nephritis rats; [5]): 45.88 ± 12.2 µmol/L
